Consider 4 molecules from PMC10689700, “Kaemtakols A–D, highly oxidized pimarane diterpenoids with potent anti-inflammatory activity from Kaempferia takensis” (Natural Products and Bioprospecting, 2023).

The subject of data set [1] is NO production in RAW 264.7 macrophage cells. The data set can be described thus: Inhibition of LPS-induced NO production in RAW 264.7 macrophage cells (Griess reaction). Type of data set: cell-based, murine. As to conditions: Mus musculus; for IC50: RAW264.7, LPS-triggered RAW 264.7 macrophage cells, read-out: IC50 of inhibiting nitric oxide production; for EC50: RAW264.7 cells, LPS 0.25 μg/mL, 24 h, read-out: EC50, Nitric oxide (LPS-induced NO production). How it is done: (§1) Inhibition of NO production in LPS-activated murine macrophages (RAW 264.7 cells) The inhibitory assay followed the methods described previously with some modifications. RAW 264.7 cells were seeded at 3 × 10^4 cells/well in a 96-well flat bottom plate and cultured in DMEM high glucose supplemented with 10% FBS, 1% penicillin–streptomycin, and 1% HEPES. The plates were initially incubated at 37 °C for 24 h under 5% CO2 atmosphere. Thereafter, LPS (0.25 μg/mL) in the absence or presence of different concentrations of kaemtakols (100, 10, 1, 0.1, 0.01, and 0.001 μg/mL) were introduced into the culture plate and then incubated further for 24 h under the same condition. Aminoguanidine hydrochloride (iNOS inhibitor) was also added as a positive control. The nitrite accumulation in the media was determined by the Griess reaction. The 75 μL of each culture supernatant was mixed with an equivalent amount of Griess reagent and the resulting mixture was incubated at room temperature for additional 10 min. Then, the absorbance at 546 nm was measured using a multimode microplate reader (ENVISION). The cytotoxicity of kaemtakols against RAW 264.7 was determined by a standard MTT assay.
In general terms: Griess reagent forms a coloured azo dye with nitrite.

Data set [2] deals with NF-κB in HaCaT cells. As to the kind of experiment: Inhibition of cytokine-induced NF-κB nuclear translocation in HaCaT human skin cells (high-content imaging). Type of data set: cell-based. As to conditions: cytokine cocktail TNF-α, IL-1β, IL-6, read-out: EC50, HaCaT cell (NF-κB production by cytokine induced inflammation). How it is done: Assessment of inhibitory effects on NF-κB nuclear translocation in human skin HaCaT cells
The assay followed the methods described previously with some modifications. Human skin cells (HaCaT cells) were seeded at 5 × 10^4 cells/well in a 96-well black flat-bottom plate, using DMEM (Dulbecco’s Modified Eagle Medium) high glucose supplemented with 10% FBS and 1% penicillin–streptomycin. The plates were then incubated at 37 °C for 24 h under 5% CO2 atmosphere. Following the initial incubation, a range of concentrations (100, 50, 25, 12.5, 6.25, 3.125 μM) of kaemtakols were introduced to the cells, and a subsequent 1-h incubation at 37 °C with 5% CO2 was carried out. Afterward, a cytokine cocktail comprising TNF-α (10 ng/mL), IL-1β (10 ng/mL), and IL-6 (10 ng/mL), along with the same concentration range of kaemtakols, was introduced to the culture plates and incubated at 37 °C with 5% CO2 for additional 30 min. Thereafter, the treated cells were fixed with 100% methanol at -20 °C for 10 min. The fixed cells underwent triple washes with DPBS before being exposed to a blocking solution (3% BSA) at room temperature for 60 min. Subsequently, a primary antibody (anti-NF-κB), a Rabbit monoclonal antibody, was introduced into the culture plate at a 1:500 ratio in DPBS and incubated at 4 °C overnight. Afterward, the culture plate was washed with DPBS three times. A secondary antibody (Alexa Fluor 488-conjugated goat anti-rabbit IgG) at a 1:500 ratio in DPBS was added to the culture plate and incubated for 1 h at room temperature in the dark. Simultaneously, Hoechst (at a 1:1,000 ratio in DPBS) was also added to the culture plate. The translocation of NF-κB in cells treated with the cytokine cocktail and kaemtakols was subsequently detected using a high-content imaging system (Operetta). The cell viability was determined by Hoechst DNA staining (Operetta).

A short description of data set [3]: Cytotoxicity against RAW 264.7 cells (MTT assay). Type of data set: cell-based, murine. As to conditions: mouse; for viability at 24 h, 10 µM: at 10 μM, read-out: % Cell viability At 10 μM; for viability at 24 h, 100 µM: at 100 μM, read-out: % Cell viability At 100 μM. The method, then: as §1, with “The” for “Inhibition of NO production in LPS-activated murine macrophages (RAW 264.7 cells) The”
For orientation: Tetrazolium assays rely on reduction of a dye to a coloured formazan, in cell work by metabolically active cells.

Regarding `C=CC1(C)C=C2C3(O)OCC4(C(OC(C)=O)CCC(C)(C)C4C3OC(C)=O)C2(O)CC1` (stereo not drawn) [Compound 1, 7α,9α-dihydroxy-1α,6β-diacetoxy-7β,20-epoxyisopimara-8(14),15-diene], in data set [1], the IC50 (in general, the concentration that gives 50% inhibition) was found to be 104 µM and the EC50 (usually the concentration needed to bring the measured effect to its halfway point) stood at 104 µM. For the same molecule, the EC50 in data set [2] was over 100 µM. Further, in data set [3], the viability (in general, a per cent measure of how many cells are alive, often set against a control) at 24 h, 10 µM is 95.7% and the viability at 24 h, 100 µM is 68.5%.
As to `C=C[C@]1(C)C=C2[C@@H](OC(C)=O)[C@@]3(O)OC[C@]4([C@@H]3C(C)(C)CC[C@@H]4O)[C@@]2(O)CC1` [Compound 3, 1α,6α,9α-trihydroxy-7β-acetoxy-6β,20-epoxyisopimara-8(14),15-diene], the EC50 in data set [1] worked out at 29.9 µM. The concentration for a half-maximal effect (EC50) in data set [2] is over 100 µM. Besides, in data set [3], the viability at 24 h, 10 µM was 92.5% and the viability at 24 h, 100 µM was found to be 97.2%.
For `C=C[C@]1(C)C=C2[C@](O)(CC1)[C@]13CO[C@@]2(O)[C@@H](OC(C)=O)[C@H]1C(C)(C)CC[C@@H]3O` [Compound 2, 1α,7α,9α-trihydroxy-6β-acetoxy-7β,20-epoxyisopimara-8(14),15-diene], in data set [1], the IC50 turned out to be 0.69 µM and the EC50 turned out to be 0.69 µM. Moreover, the EC50 in data set [2] is over 100 µM. Besides, in data set [3], the viability at 24 h, 10 µM was 83% and the viability at 24 h, 100 µM was found to be 20.8%.
Take `CC(=O)OC1CCC(C)(C)C(C=O)C12COC(=O)C1=C2C2CC3C1C3(C)C2` (stereo not drawn) [Compound 4, 1α-acetoxy-13β-methyl-6,7-seco-7,20-olide-8,9-tricyclo[3.2.1.0^2,7]octane-isopimara-8-en-6-al]: the figures for the EC50 in data set [1] and in data set [2] were 18.8 µM and over 100 µM, respectively. Moreover, the viability at 24 h, 10 µM in data set [3] is 89.7%. Besides, in data set [3], the viability at 24 h, 100 µM was 1.55%.
